In general, EC50 refers to the concentration that produces a half-maximal response. Low readings indicate higher potency in that assay, high ones lower potency in that assay. Broadly, the Emax is the size of the effect at its maximum, as opposed to the concentration needed.

Assay [1] has as its target T1, GPR1 (Homo sapiens, UniProt P46091).
T1 construct: expressed in transfected cells; host or cells: COS-7, transient
Nature of the assay: cell-based. The settings on record: for Emax: COS-7. Here is the method: Arrestin recruitment was characterized by measuring the bioluminescence resonance energy transfer (BRET) ratio between luciferase-tagged arrestin3 and either GPR1-eYFP or CMKLR1-eYFP as described previously. In brief, COS-7 cells in 75 cm^2 cell culture flasks were transiently transfected overnight with 7800 ng GPR1-eYFP or CMKLR1-eYFP in pVitro2 and 200 ng Rluc8-Arr3 in pcDNA3 using MetafectenePro according to the manufacturer’s protocol. […] For kinetic measurements, cells were stimulated with agonist in buffer or buffer alone, and fluorescence was measured for 20 min using a Tecan Infinite M 200 Reader (Tecan, Männerdorf, Switzerland) using the filter sets Green1 (YFP emission, luminescence 520–570 nm) and Blue1 (luciferase luminescence 370–480 nm). For concentration–response curves, cells were stimulated with agonist or blank, and luminescence was measured after 10 min. BRET signal was calculated as the ratio of fluorescence divided by luminescence, netBRET signal was calculated by subtracting the BRET signal of unstimulated wells from the respective samples.

The target of assay [2] is T2, GPR1-eYFP (human) (UniProt P46091).
T2 sequence: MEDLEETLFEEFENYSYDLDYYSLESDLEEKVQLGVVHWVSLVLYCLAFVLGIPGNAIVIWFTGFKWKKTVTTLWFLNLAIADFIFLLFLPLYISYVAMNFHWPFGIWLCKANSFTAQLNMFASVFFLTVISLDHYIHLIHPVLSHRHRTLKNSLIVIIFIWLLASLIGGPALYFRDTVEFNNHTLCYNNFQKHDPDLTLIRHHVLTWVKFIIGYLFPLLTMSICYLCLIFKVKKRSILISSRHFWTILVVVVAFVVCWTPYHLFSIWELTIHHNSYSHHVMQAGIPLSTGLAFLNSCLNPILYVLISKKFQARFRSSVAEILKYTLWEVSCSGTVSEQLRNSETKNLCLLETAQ

Ends that are not written are not given here. Peptide text beside a SMILES is read from it. Where only a bound is given, the exact number is not on record here.

T1 sequence (P32120 whole entry partner, one chain of several): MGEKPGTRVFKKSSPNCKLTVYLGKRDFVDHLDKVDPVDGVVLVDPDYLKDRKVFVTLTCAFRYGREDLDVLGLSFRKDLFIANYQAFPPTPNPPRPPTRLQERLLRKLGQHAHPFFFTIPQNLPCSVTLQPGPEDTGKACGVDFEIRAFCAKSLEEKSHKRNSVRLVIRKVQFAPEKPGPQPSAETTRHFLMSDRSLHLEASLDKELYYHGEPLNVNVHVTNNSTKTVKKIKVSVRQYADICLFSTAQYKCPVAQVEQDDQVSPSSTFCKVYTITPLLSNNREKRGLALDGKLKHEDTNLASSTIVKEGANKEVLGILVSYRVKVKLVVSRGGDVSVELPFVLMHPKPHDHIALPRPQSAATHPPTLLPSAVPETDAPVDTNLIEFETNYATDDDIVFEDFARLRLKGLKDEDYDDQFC

For the molecule `C[C@@H]1NC(=O)[C@H](Cc2ccccc2)NC(=O)[C@H](CCC(N)=O)NC(=O)[C@H](NC(=O)[C@@H]2CCCN2C(=O)[C@H](Cc2ccccc2)NC(=O)[C@@H](N)Cc2ccc(O)cc2)CCSSC[C@@H](C(=O)O)NC(=O)[C@H](Cc2ccccc2)NC1=O` [[4-9]-c(chemerin-9)] (HELM PEPTIDE1{Y.F.P.[O=C([C@@H](CCS[*:3])N[*:1])[*:2]].Q.F.A.F.C}$PEPTIDE1,PEPTIDE1,4:R3-9:R3$$$V2.0), the EC50 in assay [1] was 3.3 nM.
For Chem^149-155 (chemerin-7) (peptide), in assay [2], the EC50 of arrestin3 recruitment to GPR1-eYFP (BRET with Rluc8-Arr3, COS-7 cells) is above 1000 nM.
Regarding FPGQFAFS [Chem^150−157], in assay [1], the midpoint of the response, the EC50, lay at 22.4 nM and the Emax came out at 87 ± 8%.
In assay [1], QRAGEDPHSFYFPGQFAF [Chem^139−156] had an EC50 of 2.95 nM and an Emax of 99 ± 9%.
On the same counts, the results for QRAGEDPHSFYFPGQFAFS [Chem^139−157] are 3.09 nM and 94 ± 7%.
In the case of YFPGQFAF [Chem^149−156], in assay [1], the EC50 is 3.98 nM and the maximal effect (Emax) is 110 ± 16%.
As to QRAGEDPHSFYFPGQFAFS [Chem^139-157], in assay [2], the EC50 of arrestin3 recruitment to GPR1-eYFP (BRET with Rluc8-Arr3, COS-7 cells) is 3.1 nM.
On the same count and under the same terms, the value for QFYSFFPAG [scr2C9] was above 1000 nM; that for QRAGEDPHSFYFPGQFAF [Chem^139-156] was 2.9 nM.
In assay [2], PGQFAFS [Chem^151-157] yielded an EC50 of arrestin3 recruitment to GPR1-eYFP (BRET with Rluc8-Arr3, COS-7 cells) above 1000 nM.
With YFPGQFAF [Chem^149-156], the EC50 of arrestin3 recruitment to GPR1-eYFP (BRET with Rluc8-Arr3, COS-7 cells) in assay [2] turned out to be 4 nM.
Same read-out and setting: the value for FPGQFAFS [Chem^150-157] was 22 nM.

The values above are taken from paper PMC8429170, “Ligand-binding and -scavenging of the chemerin receptor GPR1” (Cellular and Molecular Life Sciences: CMLS, 2021).
